{"source": "patent US20220168319A1", "about": "“COMBINED USE OF A-NOR-5alpha ANDROSTANE COMPOUND DRUG AND ANTICANCER DRUG” (SHANGHAI AO QI MEDICAL TECHNOLOGY CO., LTD., priority 2019, published 2022)", "key": {"[1]": {"tested_on": "human liver cancer QGY-7703", "type": "in vivo, nude mice", "conditions": "ip × 7 qd; for Tumor Inhibition rate %: counted by tumor weight", "protocol": "(§1) ACP Administration Group: oral doses were 5, 2.5 and 1.25 mg/kg; oral administration twice a day (with an interval of about 6 hours) for 14 days.\n(§2) ACP+Adriamycin or Cyclophosphamide Administration Group: oral doses of ACP were 5, 2.5 and 1.25 mg/kg; oral administration twice a day (with an interval of about 6 hours) for 14 days. Adriamycin lmg/kg or Cyclophosphamide 15 mg/kg were administered intraperitoneally 10 min after the first ACP administration for 7 consecutive days.\n(§3) Positive Control Group: Adriamycin 2 mg/kg/time or cyclophosphamide 30 mg/kg/time were administered intraperitoneally once a day for 7 days.\n(§4) Negative Control Group: the same volume of solvent as the experimental group was administered, and the administration scheme was the same as that of the experimental group.\n(§5) Human tumor cell lines cryopstored in liquid nitrogen were cultured at 37° C. and 5% CO2 after resuscitation. After subculture, the cells in logarithmic growth period were taken and prepared into cell suspension of about (1-2)×10^7 Cell/ml, and inoculated subcutaneously in the right axilla of nude mice 0.2 ml/mice. Under aseptic conditions, tumor tissues of the second or later generations of human tumors liver cancer QGY-7703, pancreatic cancer PANC-1, and lung cancer A549 xenograft models with vigorous growth in vivo, were taken and cut into uniform pieces with the size of 1-2 mm3, and one piece was subcutaneously inoculated in the right axilla of each naked mouse with trocar. The mouse were randomly divided into groups till the tumors inoculated grow to more than 100 mm^3 and administered according to the experimental design scheme.\n(§6) After administration, the tumor size was dynamically observed and tested, and the body weight of tumor-bearing mice was weighed. The short diameter (a) and long diameter (b) of the tumor of the naked mouse were measured with calipers every 3 days, and the tumor volume was calculated according to the formula of (a^2×b)/2. The relative tumor volume (RTV) was calculated from the measured and calculated tumor volume, RTV=Vt/V0. Wherein, Vo is the tumor volume at random grouping (i.e., d0), and Vt is the tumor volume at each measurement (i.e., dn). The animals in each group were sacrificed at about three weeks, and the tumor volume was measured, dissected and weighed. The relative tumor proliferation rate and tumor inhibition rate were calculated according to the following formula: […]"}, "[2]": {"tested_on": "pancreatic cancer tissue from patients", "assay": "Efficacy of ACP combined with gemcitabine in pancreatic cancer SuperPDTX mice model", "type": "in vivo, NCG mice", "conditions": "ACP 5 mg/kg p.o. Bid*7, Gemcitabine 30 mg/kg i.p. BIW", "text": "(§7) Mice: NCG (NOD-Prkdcem26I12rgem26Nju), Institute of Biomedical Research, Nanjing University\nPancreatic cancer tissue mass were the P2 generation samples of cryopreserved collected from mice after inoculation of the samples from patients with pancreatic cancer, and the samples used in this experiment were P3 generation samples after passage.\n(§8) Pancreatic cancer samples were inoculated in the tested mice, and the size of inoculated tissue was 1*1*4mm^3. On the day of inoculation, mice were randomly divided into 4 experimental groups with 6 mice in each group and 4 mice in each cage. The day of grouping was defined as Day 0. The mice were administered according to the experimental protocol for 7 days, and sampled within 24 hours after the end of administration. 24h after the last administration, the experiment was ended, the mice were sacrificed, the tumor was removed, the surrounding connective tissue and muscle tissue were removed under the microscope, and stored in 10% formaldehyde."}, "[3]": {"tested_on": "liver cancer tissue from patients", "assay": "Efficacy of ACP combined with oxaliplatin or sorafenib in liver cancer SuperPDTX mice model", "type": "in vivo, NCG mice", "conditions": "pathology after 7 days; ACP 5 mg/kg p.o. Bid*7, Sorafenib 60 mg/kg p.o. Qd*7, Oxaliplatin 6 mg/kg i.p. Biw*1", "text": "as §7\nas §8, with “Liver cancer tissue mass were the P1 generation samples of cryopreserved collected from mice after inoculation of the samples from patients with liver cancer, and the samples used in this experiment were P2 generation samples after passage. Liver cancer” for “Pancreatic cancer”, “was 1*1*4 mm^3.” for “was 1*1*4mm^3.”, “into 6” for “into 4”, “administration. 24 h” for “administration. 24h”"}, "[4]": {"tested_on": "human pancreatic cancer PANC-1", "assay": "Human pancreatic cancer PANC-1 xenograft transplantation model in nude mice", "type": "in vivo", "conditions": "ip × 7 qd; for Tumor Inhibition rate %: counted by tumor weight", "protocol": "as §1, §2, §3, §4, §5, §6"}, "human lung cancer A549": {"tested_on": "human lung cancer A549", "assay": "Human lung cancer A549 xenograft transplantation model in nude mice", "type": "in vivo", "conditions": "ip × 7 qd; for Tumor Inhibition rate %: counted by tumor weight", "protocol": "as §1, §2, §3, §4, §5, §6"}}, "note": "Read-outs that look alike come from different tables or passages of the source."}
{"smiles": "O=P1(N(CCCl)CCCl)NCCCO1", "note": "(stereo not shown) [Cyclophosphamide, cyclophosphamide]", "values": [{"measurement": "Tumor weight (gram) x ± SD", "setting": "[1]; 15 mg/kg", "value": "1.010 ± 0.19", "unit": "gram"}, {"measurement": "Tumor Inhibition rate %", "setting": "[1]; 15 mg/kg", "value": 36.88, "unit": "%"}, {"measurement": "Tumor weight (gram) x ± SD", "setting": "[1]; 30 mg/kg", "value": "0.197 ± 0.04", "unit": "gram"}, {"measurement": "Tumor Inhibition rate %", "setting": "[1]; 30 mg/kg", "value": 87.69, "unit": "%"}]}
{"smiles": "Nc1ccn([C@@H]2O[C@H](CO)[C@@H](O)C2(F)F)c(=O)n1", "note": "[Gemcitabine, gemcitabine]", "values": [{"measurement": "Tumor Ki67 Mean", "setting": "[2]; immunohistochemistry after 7 days", "value": "23.33 ± 5.16"}, {"measurement": "Heterotypic Degree", "setting": "[2]; pathology after 7 days", "value": "Moderate"}, {"measurement": "Proportion of tumor necrosis TCNR Mean", "setting": "[2]; pathology after 7 days", "value": "0.00 ± 0.00"}, {"measurement": "Tumor component Mean", "setting": "[2]; pathology after 7 days", "value": "55.00 ± 18.71"}]}
{"smiles": "O=C1[O][Pt]2([NH][C@@H]3CCCC[C@H]3[NH]2)[O]C1=O", "note": "[Oxaliplatin, oxaliplatin]", "values": [{"measurement": "Heterotypic Degree", "setting": "[3]", "value": "Severe"}, {"measurement": "Proportion of tumor necrosis TCNR Mean", "setting": "[3]", "value": "16.67 ± 8.76", "unit": "%"}, {"measurement": "Tumor component Mean", "setting": "[3]", "value": "53.33 ± 15.1", "unit": "%"}]}
{"smiles": "CNC(=O)c1cc(Oc2ccc(NC(=O)Nc3ccc(Cl)c(C(F)(F)F)c3)cc2)ccn1", "note": "[Sorafenib, sorafenib]", "values": [{"measurement": "Heterotypic Degree", "setting": "[3]", "value": "Severe"}, {"measurement": "Proportion of tumor necrosis TCNR Mean", "setting": "[3]", "value": "18.33 ± 7.52", "unit": "%"}, {"measurement": "Tumor component Mean", "setting": "[3]", "value": "58.33 ± 24.8", "unit": "%"}]}
{"smiles": "COc1cccc2c1C(=O)c1c(O)c3c(c(O)c1C2=O)C[C@@](O)(C(=O)CO)C[C@@H]3O[C@H]1C[C@H](N)[C@H](O)[C@H](C)O1", "note": "[adriamycin]", "values": [{"measurement": "Tumor weight (gram) x ± SD", "setting": "[4]; 1 mg/kg", "value": "0.668 ± 0.09", "unit": "gram"}, {"measurement": "Tumor Inhibition rate %", "setting": "[4]; 1 mg/kg", "value": 34.51, "unit": "%"}, {"measurement": "Tumor weight (gram) x ± SD", "setting": "[4]; 2 mg/kg", "value": "0.265 ± 0.06", "unit": "gram"}, {"measurement": "Tumor Inhibition rate %", "setting": "[4]; 2 mg/kg", "value": 74.02, "unit": "%"}, {"measurement": "Tumor weight (gram) x ± SD", "setting": "human lung cancer A549; 1 mg/kg", "value": "0.843 ± 0.08", "unit": "gram"}, {"measurement": "Tumor Inhibition rate %", "setting": "human lung cancer A549; 1 mg/kg", "value": 42.26, "unit": "%"}, {"measurement": "Tumor weight (gram) x ± SD", "setting": "human lung cancer A549; 2 mg/kg", "value": "0.198 ± 0.04", "unit": "gram"}, {"measurement": "Tumor Inhibition rate %", "setting": "human lung cancer A549; 2 mg/kg", "value": 86.30, "unit": "%"}]}
